This passage reports EC50 results from patent US11452717B2, “Small molecule activators of nicotinamide phosphoribosyltransferase (NAMPT) and uses thereof” (Sanford Burnham Prebys Medical Discovery Institute, priority 2017, dated 2022).

A value given as a limit tells only on which side of the number the result lay.

The test addresses NAMPT enzyme (Homo sapiens (Human), UniProt P43490). Briefly: Enzyme Assay and NMN Detection (NAMPT reaction, fluorescence detection of NMN). It is filed as biochemical. The conditions noted are these: NAMPT activation, NMN formation. The method, then:
NAMPT reaction was performed in 50 mM HEPES, pH 7.5, containing 5 mM MgCl2, 0.1% Prionex, 0.005% Tween 20, and 1 mM TCEP at room temperature in Greiner 384-well black polypropylene plates. The concentration of substrates and enzymes in the final assay were as follows: ATP (120 uM), nicotinamide (5 uM), phosphoribosylpyrophosphate (6.25 uM), NAMPT enzyme (16 nM), pyrophosphatase (0.04 U/ml) in the final reaction volume 6 uL. Following 2 h incubation the reaction was stopped by addition 2.5 ul 20% acetophenone in dimethyl sulfoxide (DMSO) and 2.5 ul 2 MKOH. Plates were centrifuges and added with 10.5 ul 88% formic acid. The fluorescence (ex380/em460) was measured following another short incubation and 30 min incubation. The increased concentration of NMN was determined from a calibration curve obtained at the time of experiment.

NAMPT enzyme, sequence (P43490 whole entry, species assumed): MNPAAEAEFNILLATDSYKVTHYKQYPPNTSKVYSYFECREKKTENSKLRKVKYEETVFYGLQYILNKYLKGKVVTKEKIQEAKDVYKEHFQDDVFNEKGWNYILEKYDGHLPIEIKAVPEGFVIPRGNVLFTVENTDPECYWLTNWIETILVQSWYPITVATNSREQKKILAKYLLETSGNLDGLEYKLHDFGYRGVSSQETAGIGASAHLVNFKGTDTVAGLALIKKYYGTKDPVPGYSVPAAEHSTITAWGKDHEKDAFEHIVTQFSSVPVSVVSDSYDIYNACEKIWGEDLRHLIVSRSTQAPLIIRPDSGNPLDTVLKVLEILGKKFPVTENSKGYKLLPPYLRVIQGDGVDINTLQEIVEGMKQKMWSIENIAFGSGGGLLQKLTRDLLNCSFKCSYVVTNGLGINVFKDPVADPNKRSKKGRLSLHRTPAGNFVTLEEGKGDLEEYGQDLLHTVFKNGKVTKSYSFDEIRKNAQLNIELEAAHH

As a reminder, the EC50 is the concentration at which the effect is half-maximal. Low values mean an effect from little substance, high ones a need for much substance. Compound `Cc1ccccc1-c1ccccc1S(=O)(=O)c1ccc(NC(=O)NCc2ccncc2)cc1` [1-(4-((2′-Methyl-[1,l′-biphenyl]-2-yl)sulfonyl)phenyl)-3-(pyridin-4-ylmethyl)urea] yielded an EC50 (Table B-6) of 100 to 2000 nM.

As to `O=C(NCc1cnco1)Nc1ccc(S(=O)(=O)c2cccc(Cl)c2)cc1` [1-(4-((3-Chlorophenyl)sulfonyl)phenyl)-3-(oxazol-5-ylmethyl)urea], the EC50 (Table B-5) was less than 100 nM.

Compound `O=C(NCc1cnco1)Nc1ccc(S(=O)(=O)c2cccc(F)c2)cc1` [1-(4-((3-Fluorophenyl)sulfonyl)phenyl)-3-(oxazol-5-ylmethyl)urea] registered a concentration giving a half-maximal response (EC50) (Table B-5) of 100 to 2000 nM.

Regarding `O=C(NCc1ccncc1)Nc1ccc(S(=O)(=O)c2cccc(F)c2)cc1` [1-(4-((3-Fluorophenyl)sulfonyl)phenyl)-3-(pyridin-4-ylmethyl)urea], the EC50 (Table B-6) is less than 100 nM.

In the case of `N#Cc1cccc(-c2ccccc2S(=O)(=O)c2ccc(NC(=O)NCc3ccncc3)cc2)c1` [1-(4-((3′-Cyano-[1,1′-biphenyl]-2-yl)sulfonyl)phenyl)-3-(pyridin-4-ylmethyl)urea], the EC50 (Table B-6) was in the range of 2000 to 5000 nM.

Where the note is “Table B-5”, `O=C(NCc1cnco1)Nc1ccc(S(=O)(=O)c2ccc(Cl)cc2)cc1` [1-(4-((4-Chlorophenyl)sulfonyl)phenyl)-3-(oxazol-5-ylmethyl)urea] yielded a half-maximal effective concentration (EC50) of 100 to 2000 nM.

Regarding `O=C(NCc1cnco1)Nc1ccc(S(=O)(=O)c2ccc(F)cc2)cc1` [1-(4-((4-Fluorophenyl)sulfonyl)phenyl)-3-(oxazol-5-ylmethyl)urea], the EC50 (Table B-5) is 100 to 2000 nM.

Where the note is “Table B-6”, `O=C(NCc1ccncc1)Nc1ccc(S(=O)(=O)c2ccc(F)cc2)cc1` [1-(4-((4-Fluorophenyl)sulfonyl)phenyl)-3-(pyridin-4-ylmethyl)urea] gave an EC50 of 100 to 2000 nM.

`O=C(NCc1ccncc1)Nc1ccc(Nc2nc(-c3ccccc3)cs2)cc1` [1-(4-((4-Phenylthiazol-2-yl)amino)phenyl)-3-(pyridin-4-ylmethyl)urea] displayed an EC50 (Table B-6) of 100 to 2000 nM.

Turning to `N#Cc1ccc(-c2ccccc2S(=O)(=O)c2ccc(NC(=O)NCc3ccncc3)cc2)cc1` [1-(4-((4′-Cyano-[1,l′-biphenyl]-2-yl)sulfonyl)phenyl)-3-(pyridin-4-ylmethyl)urea], where the note is “Table B-6”, the EC50 fell in the range of 5000 to 20000 nM.

In turn, `O=C(NCc1ccncc1)Nc1ccc(Nc2ncc(-c3ccccc3)s2)cc1` [1-(4-((5-Phenylthiazol-2-yl)amino)phenyl)-3-(pyridin-4-ylmethyl)urea] registered an EC50 (Table B-6) of 5000 to 20000 nM.

`O=C(NCc1cnco1)Nc1ccc(-c2nc3ccccc3s2)cc1` [1-(4-(Benzo[d]thiazol-2-yl)phenyl)-3-(oxazol-5-ylmethyl)urea] came in with an EC50 (Table B-5) of 5000 to 20000 nM.

On to `O=C(NCc1ccncc1)Nc1ccc(-c2nc3ccccc3s2)cc1` [1-(4-(Benzo[d]thiazol-2-yl)phenyl)-3-(pyridin-4-ylmethyl)urea], for which the EC50 (Table B-6) lay within 5000 to 20000 nM.

Where the note is “Table B-5”, `O=C(NCc1cnco1)Nc1ccc(Nc2nc3ccccc3s2)cc1` [1-(4-(Benzo[d]thiazol-2-ylamino)phenyl)-3-(oxazol-5-ylmethyl)urea] showed an EC50 of 5000 to 20000 nM.

Compound `O=C(NCc1ccncc1)Nc1ccc(C(=O)N2Cc3ccccc3C2)cc1` [1-(4-(Isoindoline-2-carbonyl)phenyl)-3-(pyridin-4-ylmethyl)urea] had an EC50 (Table B-2) of more than 20000 nM.

In the case of `O=C(NCc1ccncc1)Nc1ccc(C(=O)N2CCOCC2)cc1` [1-(4-(Morpholine-4-carbonyl)phenyl)-3-(pyridin-4-ylmethyl)urea], the half-maximal effective concentration (EC50) (Table B-2) is 5000 to 20000 nM.

The compound `O=C(NCc1ccncc1)Nc1ccc(C(=O)N2CCCCC2)cc1` [1-(4-(Piperidine-1-carbonyl)phenyl)-3-(pyridin-4-ylmethyl)urea] showed an EC50 (Table B-2) of 5000 to 20000 nM.

As for `O=C(NCc1ccncc1)Nc1ccc(S(=O)(=O)c2ccccn2)cc1` [1-(4-(Pyridin-2-ylsulfonyl)phenyl)-3-(pyridin-4-ylmethyl)urea], the EC50 (Table B-6) was 100 to 2000 nM.

In the case of `O=C(NCc1cnco1)Nc1ccc(S(=O)(=O)c2ccccc2-c2ccccc2)cc1` [1-(4-([1,1′-Biphenyl]-2-ylsulfonyl)phenyl)-3-(oxazol-5-ylmethyl)urea], the concentration for a half-maximal effect (EC50) (Table B-5) was less than 100 nM.
